Measurements: the NIST ThermoML archive (doi:10.1016/j.jct.2015.03.017)
Numbers after ± are expanded uncertainties.

Assay: mn = molality of the nth substance listed, in mol/kg
Settings: 74.66 kPa, Liquid; for speed of sound: Frequency=3 MHz, Sing-around technique in a fixed-path interferometer; for mass density: Vibrating tube method

CCC(C)[N+](C(C)CC)(C(C)CC)C(C)CC.[Br-] (stereo unspecified) [tetra-sec-butyl ammonium bromide] + O
Settings	mass density, 278.15 K [kg/m3]	mass density, 283.15 K [kg/m3]	mass density, 288.15 K [kg/m3]	mass density, 293.15 K [kg/m3]	speed of sound, 278.15 K [m/s]	speed of sound, 283.15 K [m/s]	speed of sound, 288.15 K [m/s]	speed of sound, 293.15 K [m/s]	speed of sound, 298.15 K [m/s]
m1 = 0.009699	1000.43 ± 0.12	1000.15 ± 0.12	999.553 ± 0.12	998.653 ± 0.12	1429.9 ± 1.2	1450.7 ± 1.2	1469 ± 1.2	1485.1 ± 1.2	1499 ± 1.2
m1 = 0.01981	1000.92 ± 0.12	1000.64 ± 0.12	1000.03 ± 0.12	999.127 ± 0.12	1432.6 ± 1.2	1453.1 ± 1.2	1471.2 ± 1.2	1487.4 ± 1.2	1500.9 ± 1.2
m1 = 0.03014	–	–	–	–	1435.2 ± 1.2	1455.5 ± 1.2	1473.4 ± 1.2	1489.2 ± 1.2	1503 ± 1.2
m1 = 0.04066	1002 ± 0.12	1001.68 ± 0.12	1001.04 ± 0.12	1000.12 ± 0.12	1438.2 ± 1.2	1458.2 ± 1.2	1475.9 ± 1.2	1491.5 ± 1.2	1505.2 ± 1.2
m1 = 0.04983	1002.49 ± 0.12	1002.14 ± 0.12	1001.5 ± 0.12	1000.59 ± 0.12	1440.2 ± 1.2	1460.1 ± 1.2	1477.6 ± 1.2	1493.1 ± 1.2	1506.5 ± 1.2
m1 = 0.0598	1003.02 ± 0.12	1002.66 ± 0.12	1002 ± 0.12	1001.08 ± 0.12	1443.3 ± 1.2	1463 ± 1.2	1480.4 ± 1.2	1495.4 ± 1.2	1508.3 ± 1.2
m1 = 0.07027	1003.58 ± 0.12	1003.21 ± 0.12	1002.55 ± 0.12	1001.63 ± 0.12	1445.7 ± 1.2	1465.7 ± 1.2	1483.2 ± 1.2	1497.7 ± 1.2	1510.9 ± 1.2
m1 = 0.07997	1004.11 ± 0.12	1003.75 ± 0.12	1003.08 ± 0.12	1002.12 ± 0.12	1448.5 ± 1.2	1468.4 ± 1.2	1485 ± 1.2	1499.7 ± 1.2	1512 ± 1.2
m1 = 0.08984	1004.68 ± 0.12	1004.31 ± 0.12	1003.61 ± 0.12	1002.64 ± 0.12	1451.4 ± 1.2	1471.3 ± 1.2	1488 ± 1.2	1501.6 ± 1.2	1514.2 ± 1.2
m1 = 0.1018	1005.32 ± 0.12	1004.97 ± 0.12	1004.26 ± 0.12	1003.28 ± 0.12	1454.9 ± 1.2	1474.9 ± 1.2	1490.9 ± 1.2	1504 ± 1.2	1516 ± 1.2
